Drawing on ChEMBL document CHEMBL4251553, “Synthesis, anticancer evaluation and pharmacokinetic study of novel 10-O-phenyl ethers of dihydroartemisinin” (Eur J Med Chem, 2017), this text covers GI50 and RatioGI50 for 14 compounds.

SMILES strings stand for the structures. A value given as a limit tells only on which side of the number the result lay.

Format in all cases: functional
One experiment has as its system MDA-MB-231. Put plainly: Antiproliferative activity against human MDA-MB-231 cells after 96 hrs by MTT assay. Particulars: MDA-MB-231, 96 h. On the technique in general: Formazan colour is commonly taken as a measure of viable cells.
Another experiment relates to MCF7. Nature of the experiment: Antiproliferative activity against human MCF7 cells after 96 hrs by MTT assay. Conditions: MCF7, 96 h.
The next experiment relates to NCI/ADR-RES. Put plainly: Antiproliferative activity against human MCF7/ADR cells after 96 hrs by MTT assay.
A short description of experiment [1]: Selectivity ratio of GI50 for human MCF7 cells to GI50 for human MCF7/ADR cells.

A word on the GI50: it is the concentration that inhibits growth by half. A high value points to less potent growth inhibition.

With `C[C@H]1[C@H](Oc2ccc(-c3cc(-c4ccc(Br)cc4)[nH]n3)cc2)O[C@@H]2O[C@@]3(C)CC[C@H]4[C@H](C)CC[C@@H]1[C@@]24OO3`, the values for the GI50 in the experiment on MDA-MB-231, in the experiment on MCF7 and with NCI/ADR-RES were 0.55 µM, 0.44 µM and 0.03 µM, respectively. The RatioGI50 in experiment [1] was 14.7.

Take `C[C@H]1[C@@H](Oc2ccc(-c3cc(-c4ccc(Cl)cc4)[nH]n3)cc2)O[C@@H]2O[C@@]3(C)CC[C@H]4[C@H](C)CC[C@@H]1[C@@]24OO3`: the GI50 with MDA-MB-231 was determined as 0.92 µM; with MCF7 it was 0.19 µM; with NCI/ADR-RES it was 0.055 µM. Also, the RatioGI50 in experiment [1] is listed as 3.6.

For the compound `COc1ccc(-c2cc(-c3ccc(O[C@H]4O[C@@H]5O[C@@]6(C)CC[C@H]7[C@H](C)CC[C@@H]([C@H]4C)[C@@]57OO6)cc3)n[nH]2)cc1`, the GI50 is 0.87 µM with MDA-MB-231, 0.56 µM in the experiment on MCF7 and 0.028 µM in the experiment on NCI/ADR-RES. For the same compound, the RatioGI50 in experiment [1] is 20.

On to `COc1ccc(C2CC(c3ccc(O[C@@H]4O[C@@H]5O[C@@]6(C)CC[C@H]7[C@H](C)CC[C@@H]([C@H]4C)[C@@]57OO6)cc3)=NN2C(C)=O)c(OC)c1` (stereo partly drawn), for which the GI50 in the experiment on MDA-MB-231 worked out at 0.58 µM; with MCF7, 0.38 µM; in the experiment on NCI/ADR-RES, 0.058 µM. The RatioGI50 in experiment [1] was determined as 6.6.

Take `CC(=O)N1N=C(c2ccc(O[C@@H]3O[C@@H]4O[C@@]5(C)CC[C@H]6[C@H](C)CC[C@@H]([C@H]3C)[C@@]46OO5)cc2)CC1c1ccc(Br)cc1` (stereo partly drawn): the GI50 is 0.58 µM in the experiment with MDA-MB-231, 0.98 µM with MCF7 and 0.15 µM in the experiment on NCI/ADR-RES. Also, the RatioGI50 in experiment [1] came out at 6.5.

Regarding `COc1ccc(-c2cc(-c3ccc(O[C@@H]4O[C@@H]5O[C@@]6(C)CC[C@H]7[C@H](C)CC[C@@H]([C@H]4C)[C@@]57OO6)cc3)n[nH]2)cc1`, the GI50 with MDA-MB-231 was 1.42 µM; in the experiment on MCF7, 0.44 µM; in the experiment on NCI/ADR-RES, 0.052 µM. Besides, the RatioGI50 in experiment [1] was determined as 8.5.

Take `COc1ccc(-c2cc(-c3ccc(O[C@H]4O[C@@H]5O[C@@]6(C)CC[C@H]7[C@H](C)CC[C@@H]([C@H]4C)[C@@]57OO6)cc3)n[nH]2)c(OC)c1`: the GI50 worked out at 0.67 µM in the experiment with MDA-MB-231, 0.33 µM in the experiment with MCF7 and 0.033 µM in the experiment with NCI/ADR-RES. In addition, the RatioGI50 in experiment [1] came out at 10.

As to `COc1cccc2c1C(=O)c1c(O)c3c(c(O)c1C2=O)C[C@@](O)(C(=O)CO)C[C@@H]3O[C@H]1C[C@H](N)[C@H](O)[C@H](C)O1.Cl` [DOXORUBICIN HYDROCHLORIDE], the GI50 in the experiment on MDA-MB-231 is 0.12 µM; with MCF7, 0.054 µM; in the experiment with NCI/ADR-RES it was 0.54 µM. Further, the RatioGI50 in experiment [1] is 0.1.

On to `C[C@H]1[C@H](Oc2ccc(-c3cc(-c4ccc(Cl)cc4)[nH]n3)cc2)O[C@@H]2O[C@@]3(C)CC[C@H]4[C@H](C)CC[C@@H]1[C@@]24OO3`, for which the GI50 with MDA-MB-231 worked out at 0.63 µM; in the experiment with MCF7 it was 0.44 µM; in the experiment on NCI/ADR-RES, 0.031 µM. The RatioGI50 in experiment [1] is given as 14.2.

As to `COc1ccc(C2CC(c3ccc(O[C@H]4O[C@@H]5O[C@@]6(C)CC[C@H]7[C@H](C)CC[C@@H]([C@H]4C)[C@@]57OO6)cc3)=NN2C(C)=O)c(OC)c1` (stereo partly drawn), the 50% growth inhibitory concentration (GI50) in the experiment with MDA-MB-231 was 0.24 µM; with MCF7, 0.5 µM; with NCI/ADR-RES it was 0.025 µM. Also, the RatioGI50 in experiment [1] is reported as 20.

On to `CC(=O)N1N=C(c2ccc(O)cc2)CC1c1ccccc1` (stereo not drawn), for which the GI50 with MCF7 was 29.1 µM; in the experiment on NCI/ADR-RES, 38 µM. Besides, in experiment [1], the RatioGI50 turned out to be 0.77.

Consider `Oc1ccc(-c2cc(-c3ccccc3)n[nH]2)cc1`, for which the GI50 amounted to 21.2 µM in the experiment with MCF7 and 18.2 µM in the experiment with NCI/ADR-RES. In experiment [1], the RatioGI50 came out at 1.66.

Compound `CC(=O)N1N=C(c2ccc(O[C@H]3O[C@@H]4O[C@@]5(C)CC[C@H]6[C@H](C)CC[C@@H]([C@H]3C)[C@@]46O5)cc2)CC1c1ccccc1` (stereo partly drawn) returned a concentration for 50% growth inhibition (GI50) in the experiment with MCF7 of 11 µM.

The compound `C[C@@H]1CC[C@H]2[C@@H](C)C(O)O[C@@H]3O[C@@]4(C)CC[C@@H]1[C@]32O4` (stereo partly drawn) had a GI50 with MCF7 greater than 400 µM.
